In patent US20120157547A1, “COMPOSITIONS AND APPLICATIONS OF CAROTENOIDS OF IMPROVED ABSORPTION AND BIOAVAILABILITY” (priority 2010, published 2012):
Where “and” joins values, the source holds several entries; their conditions need not be identical. Equal entries are not always repeated.

Experiments:
[1] = Rate of increase in MPOD (Macular Pigment Optical Density) during 24 weeks of daily capsule ingestion; type: in vivo; conditions: 20 mg daily capsule
Description: The evaluation was carried out over a period of 24 weeks with three (3) groups of subjects that ingested daily one gelatin capsule containing the following: • The first group ingested a capsule containing a dispersion of 20 mg of Micro-Mic™ in vegetable oil. • The second group ingested a gelatin capsule containing a dispersion of 20 mg of commercial crystalline Lutein dispersed in vegetable oil. • The third group ingested a gelatin capsule containing only vegetable oil (placebo). The three gelatin capsules were all the same color (dark brown).
Rate of Increase in MPOD in Absorbance Units Per Week
The serum results are a better indicator of bioavailability than the macular pigment results. It is well established that some subjects are serum responders, but macular pigment non-responders. However in this evaluation the Micro-Mic™ group mean MPOD (Macular Pigment Optical Density) exceeds that of the crystalline Lutein subjects by approximately 14%.

[2] = Serum Lutein concentration by HPLC during 24 weeks of daily capsule ingestion (bioavailability evaluation); type: in vivo
Description: The evaluation was carried out over a period of 24 weeks with three (3) groups of subjects that ingested daily one gelatin capsule containing the following: • The first group ingested a capsule containing a dispersion of 20 mg of Micro-Mic™ in vegetable oil. • The second group ingested a gelatin capsule containing a dispersion of 20 mg of commercial crystalline Lutein dispersed in vegetable oil. • The third group ingested a gelatin capsule containing only vegetable oil (placebo). The three gelatin capsules were all the same color (dark brown). Blood samples were collected weekly and the serum analyzed for Lutein by HPLC, and the concentration was reported as (ng/ul) of Lutein The results obtained are shown for Baseline date, week 6th, week 12^t1, week 18th, and week 24th. The ratio between the concentrations at each week was divided by the Baseline concentration. The average of those ratios is reported at the base of each column.

Week 6/Baseline, group average ([2]; average of the subjects' ratios, week 6): 4.964
Week 12/Baseline, group average ([2]; average of the subjects' ratios, week 12): 4.492
Week 18/Baseline, group average ([2]; average of the subjects' ratios, week 18): 4.345
Week 24/Baseline, group average ([2]; average of the subjects' ratios, week 24): 3.931
Week 6-24/Baseline, group average ([2]; average of the subjects' ratios, weeks 6-24): 4.433
concentration at 6 weeks ([2]; human, serum, oral, 20 mg, serum, group average, week 6, 20 mg daily capsule in vegetable oil, read-out: Week 6 Lutein Conc. B, group average): 632 ng/mL
concentration at 12 weeks ([2]; human, serum, oral, 20 mg, serum, group average, week 12, 20 mg daily capsule in vegetable oil, read-out: Week 12 Lutein Conc. C, group average): 577 ng/mL
concentration at 18 weeks ([2]; human, serum, oral, 20 mg, serum, group average, week 18, 20 mg daily capsule in vegetable oil, read-out: Week 18 Lutein Conc. D, group average): 545 ng/mL
concentration at 24 weeks ([2]; human, serum, oral, 20 mg, serum, group average, week 24, 20 mg daily capsule in vegetable oil, read-out: Week 24 Lutein Conc. E, group average): 458 ng/mL
Baseline Lutein Conc. A, group average ([2]; serum, group average, baseline, group later given 20 mg daily capsule): 0.128 ng/µL
SMILES: CC1=C[C@H](O)CC(C)(C)[C@H]1/C=C/C(C)=C/C=C/C(C)=C/C=C/C=C(C)/C=C/C=C(C)/C=C/C1=C(C)C[C@@H](O)CC1(C)C [Lutein]
Rate of Increase in MPOD, Max ([1]; group maximum): 5.100E−03 Absorbance Units Per Week
Rate of Increase in MPOD, Mean ([1]; group mean): 1.690E−03 Absorbance Units Per Week
Rate of Increase in MPOD, Median ([1]; group median): 1.550E−03 Absorbance Units Per Week
Rate of Increase in MPOD, Min ([1]; group minimum): −8.000E−04 Absorbance Units Per Week
Week 6/Baseline ([2]; ratio of serum Lutein conc., individual subject, week 6): 3.934 and 4.235 and 3.335 and 4.201 and 5.425 and 2.914 and 8.047 and 8.611 and 2.624 and 6.314
Week 12/Baseline ([2]; ratio of serum Lutein conc., individual subject, week 12): 4.398 and 3.871 and 2.494 and 5.926 and 5.242 and 4.491 and 3.439 and 5.491 and 3.867 and 5.704
Week 18/Baseline ([2]; ratio of serum Lutein conc., individual subject, week 18): 3.608 and 2.273 and 2.296 and 4.321 and 11.494 and 2.395 and 3.171 and 7.268 and 2.283 and 4.335
Week 24/Baseline ([2]; ratio of serum Lutein conc., individual subject, week 24): 2.721 and 1.327 and 1.910 and 8.589 and 4.965 and 2.051 and 2.296 and 5.931 and 4.958 and 4.563
Week 6-24/Baseline ([2]; ratio of serum Lutein conc., individual subject, weeks 6-24): 3.665 and 2.927 and 2.509 and 5.759 and 6.782 and 2.963 and 4.238 and 6.825 and 3.433 and 5.229
Baseline Lutein Conc. A ([2]; serum, individual subject, baseline, group later given 20 mg daily capsule): 0.268 ng/ul and 0.108 ng/ul (3×) and 0.112 ng/ul and 0.063 ng/ul and 0.151 ng/ul and 0.119 ng/ul and 0.082 ng/ul and 0.164 ng/ul
Week 6 Lutein Conc. B ([2]; serum, individual subject, week 6, 20 mg daily capsule in vegetable oil): 1.054 ng/µL and 0.457 ng/µL and 0.372 ng/µL and 0.265 ng/µL and 0.584 ng/µL and 0.439 ng/µL and 0.867 ng/µL and 1.028 ng/µL and 0.215 ng/µL and 1.035 ng/µL
Week 12 Lutein Conc. C ([2]; serum, individual subject, week 12, 20 mg daily capsule in vegetable oil): 1.179 ng/µL and 0.418 ng/µL and 0.278 ng/µL and 0.373 ng/µL and 0.564 ng/µL and 0.677 ng/µL and 0.370 ng/µL and 0.655 ng/µL and 0.317 ng/µL and 0.935 ng/µL
Week 18 Lutein Conc. D ([2]; serum, individual subject, week 18, 20 mg daily capsule in vegetable oil): 0.967 ng/µL and 0.246 ng/µL and 0.256 ng/µL and 0.272 ng/µL and 1.238 ng/µL and 0.361 ng/µL and 0.341 ng/µL and 0.867 ng/µL and 0.187 ng/µL and 0.711 ng/µL
Week 24 Lutein Conc. E ([2]; serum, individual subject, week 24, 20 mg daily capsule in vegetable oil): 0.729 ng/µL and 0.143 ng/µL and 0.213 ng/µL and 0.541 ng/µL and 0.535 ng/µL and 0.309 ng/µL and 0.247 ng/µL and 0.708 ng/µL and 0.407 ng/µL and 0.748 ng/µL
